# Laboratory results taken from patent US7799809B2, “Carboxamide compounds and their use as calpain inhibitors” (Abbott GmbH & Co. KG, priority 2006, dated 2010).
# Target: T1, cathepsin S (Homo sapiens, UniProt P25774)
# T1 construct: purchased Calbiochem 219343; host or cells: E. coli
# Assay: Cathepsin S enzyme inhibition in vitro (kinetic fluorescence assay)
# Type: biochemical
# Conditions: recombinant human cathepsin S vs calpain I
# Protocol: (§1) The following solutions and buffers were employed: • HBS (for 40 ml): 800 μl M HEPES; 2.16 ml 100 mM KCl; 4.8 ml 1M NaCl; 3.59 ml 5% glucose; 60 μl μM MgSO4; 400 μl 100 mM Na pyruvate, 28.19 ml water; pH 7.2-7.5. • lysis buffer (for 20 ml): 400 μl M Tris pH 8.2; 2.74 ml 1M NaCl; 520 μl 0.5M EDTA; 2 ml 10% triton X-100; 0.8 ml (=1:25) CompletePlus (1 tablet/2 ml H2O); 200 μl 100 mM Pefabloc; 13.34 ml water, pH 8.2. • TBST (10×) (for 1 l): 100 mM Tris (12.1 g); 1.5M NaCl (87 g); 1% Tween 20 (10 g), adjusted to pH 8. I Enzyme Inhibition In Vitro: • Testing for blockade of the corresponding enzymic activities was carried out by means of kinetic fluorescence assays (excitation 390 nm, emission 460 nm). • Apparent Ki values were calculated from the experimentally determined IC50 values by the Cheng-Prussoff relation assuming a reversible competitive enzyme inhibition. The Km values of the substrates used under the assay conditions indicated above were: 90 μM (Z-Phe-Arg-AMC, cathepsin B), 10 μM (Z-Gly-Pro-Arg-AMC, cathepsin K), 2 μM (Z-Phe-Arg-AMC, cathepsin L), and 30 μM (Z-Val-Val-Arg-AMC, cathepsin S). • The indicated Ki values are averages of the inhibition constants calculated on the basis of 2 to 4 independent dose-effect plots.
# (§2) The following assays were used: • 1. Calpain I: • 20 nM calpain-I—isolated from human erythrocytes (Calbiochem #208713), 100 μM Suc-Leu-Tyr-AMC (Bachem #1-1355) as substrate in buffer with 62 mM imidazole, 0.3 mM CaCl2, 0.10% CHAPS, 0.05% BSA, 1 mM DTT at pH 7.3 and room temperature. • 2. Cathepsin B: • 0.25 nM cathepsin B—isolated from human liver (Calbiochem #219362), 100 μM Z-Phe-Arg-AMC (Bachem #I-1160) as substrate 50 mM MES, 2 mM EDTA, 0.05% Brij 35, 2.5 mM L-cysteine, pH 6.0, room temperature. • 3. Cathepsin K: • 3 nM cathepsin K—activated from recombinant human procathepsin K from E. coli (Calbiochem #342001), 10 μM Z-Gly-Pro-Arg-AMC (Biomol #P-142) as substrate in 50 mM MES, 2 mM EDTA, 0.05% Brij 35, 2.5 mM L-cysteine, pH 6.0, room temperature. • 4. Cathepsin L: • 1 nM cathepsin L—isolated from human liver (Calbiochem #219402), 2 μM Z-Phe-Arg-AMC (Bachem #1-1160) as substrate in 50 mM MES, 2 mM EDTA, 0.05% Brij 35, 2.5 mM L-cysteine, pH 6.0, room temperature. • 5. Cathepsin S: • 0.5 nM recombinant human cathepsin S from E. coli (Calbiochem #219343), 20 μM Z-Val-Val-Arg-AMC (Bachem #1-1540) as substrate in 50 mM MES, 2 mM EDTA, 0.05% Brij 35, 2.5 mM L-cysteine, pH 6.0, room temperature. • The results of the in vitro determination are indicated in Table 1. The following abbreviations are used in Table 1: • The “Calpain activity” column, ++ stands for a calpain Ki (Ki(calpain)) of ≦40 nM and + means: 40 nM<Ki(Calpain)≦100 nM. • The “Sel. cat. B” column indicates the Ki(cathepsin B)/Ki(calpain) ratio. In this connection, ++ means a Ki(cathepsin B)/Ki(calpain) ratio of ≧30 and + means 10≦Ki(cathepsin B)/Ki(calpain)<30. • The “Sel. cat. K” column indicates the Ki(cathepsin K)/Ki(calpain) ratio. In this connection, ++ means a Ki(cathepsin K)/Ki(calpain) ratio of ≧30 and + means 10≦Ki(cathepsin K)/Ki(calpain)<30. • The “Sel. cat. L” column indicates the Ki(cathepsin L)/Ki(calpain) ratio. In this connection, ++ means a Ki(cathepsin L)/Ki(calpain) ratio of ≧50 and + means 30≦Ki(cathepsin L)/Ki(calpain)<50. • The “Sel. cat. S” column indicates the Ki(cathepsin S)/Ki(calpain) ratio. In this connection, ++ means a Ki(cathepsin S)/Ki(calpain) ratio of ≧100 and + means 50≦Ki(cathepsin S)/Ki(calpain)<100.
# T1 sequence (P25774 115-331): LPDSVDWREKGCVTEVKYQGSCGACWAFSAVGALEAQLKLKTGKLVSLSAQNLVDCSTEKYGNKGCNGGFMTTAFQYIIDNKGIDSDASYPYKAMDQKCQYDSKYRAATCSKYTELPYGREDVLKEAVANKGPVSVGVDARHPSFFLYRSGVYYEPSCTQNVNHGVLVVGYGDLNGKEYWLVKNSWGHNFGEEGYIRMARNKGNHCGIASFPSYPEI
row,Compound,Sel cat. S: Ki(cathepsin S)/Ki(calpain) ratio
1,"NC(=O)C(=O)C(Cc1ccccc1)NC(=O)c1cccnc1-n1cc(CN2CCCC2)c(-c2cccc(C(F)(F)F)c2)n1 (stereo not shown) [Example 178, N-[3-Amino-2,3-dioxo-1-(phenylmethyl)propyl]-2-{4-(pyrrolidin-1-ylmethyl)-3-[3-(trifluoromethyl)phenyl]-1H-pyrazol-1-yl}pyridine-3-carboxamide]",++ (++ means a Ki(cathepsin S)/Ki(calpain) ratio of ≧100)
2,"NC(=O)C(=O)C(Cc1ccccc1)NC(=O)c1cccnc1-n1ccc(-c2ccncc2)n1 (stereo not shown) [Example 65, N-(3-Amino-1-benzyl-2,3-dioxopropyl)-2-(3-pyridin-4-yl-1H-pyrazol-1-yl)nicotinamide]",++ (++ means a Ki(cathepsin S)/Ki(calpain) ratio of ≧100)
3,"NC(=O)C(=O)C(Cc1ccccc1)NC(=O)c1cccnc1-n1cc(CN2CCOCC2)c(-c2cccc(C(F)(F)F)c2)n1 (stereo not shown) [Example 177, N-[3-Amino-2,3-dioxo-1-(phenylmethyl)propyl]-2-{4-(morpholin-4-ylmethyl)-3-[3-(trifluoromethyl)phenyl]-1H-pyrazol-1-yl}pyridine-3-carboxamide]",++ (++ means a Ki(cathepsin S)/Ki(calpain) ratio of ≧100)
4,"CCCCC(NC(=O)c1cccnc1-n1ccc(-c2ccc(CN3CCOCC3)cc2)n1)C(=O)C(N)=O (stereo not shown) [Example 45, N-{1-[Amino(oxo)acetyl]pentyl}-2-{3-[4-(morpholin-4-ylmethyl)phenyl]-1H-pyrazol-1-yl}nicotinamide]",+ (+ means 50≦Ki(cathepsin S)/Ki(calpain)<100)
5,"CN(C)Cc1cn(-c2ncccc2C(=O)NC(Cc2ccccc2)C(=O)C(N)=O)nc1-c1cccc(C(F)(F)F)c1 (stereo not shown) [Example 176, N-[3-Amino-2,3-dioxo-1-(phenylmethyl)propyl]-2-{4-[(dimethylamino)methyl]-3-[3-(trifluoromethyl)phenyl]-1H-pyrazol-1-yl}pyridine-3-carboxamide]",++ (++ means a Ki(cathepsin S)/Ki(calpain) ratio of ≧100)
6,"CCCCC(NC(=O)c1cccnc1-n1ccc(-c2ccccc2)n1)C(=O)C(N)=O (stereo not shown) [Example 6, N-{1-[Amino(oxo)acetyl]pentyl}-2-(3-phenyl-1H-pyrazol-1-yl)nicotinamide]",+ (+ means 50≦Ki(cathepsin S)/Ki(calpain)<100)
7,"NC(=O)C(=O)C(Cc1ccccc1)NC(=O)c1cccnc1-n1ccc(-c2ccc(-n3ccnc3)cc2)n1 (stereo not shown) [Example 101, N-[3-Amino-2,3-dioxo-1-(phenylmethyl)propyl]-2-{3-[4-(1H-imidazol-1-yl)phenyl]-1H-pyrazol-1-yl}pyridine-3-carboxamide]",++ (++ means a Ki(cathepsin S)/Ki(calpain) ratio of ≧100)
8,"NC(=O)C(=O)C(Cc1ccccc1)NC(=O)c1cccnc1-n1cnc(-c2ccc(N3CCOCC3)cc2)c1 (stereo not shown) [Example 14, N-(3-Amino-1-benzyl-2,3-dioxopropyl)-2-[4-(4-morpholin-4-ylphenyl)-1H-imidazol-1-yl]nicotinamide]",++ (++ means a Ki(cathepsin S)/Ki(calpain) ratio of ≧100)
9,"CCCCC(NC(=O)c1cccnc1-n1ccc(-c2ccc(N(CC)CC)cc2)n1)C(=O)C(N)=O (stereo not shown) [Example 47, N-{1-[Amino(oxo)acetyl]pentyl}-2-{3-[4-(diethylamino)phenyl]-1H-pyrazol-1-yl}nicotinamide]",++ (++ means a Ki(cathepsin S)/Ki(calpain) ratio of ≧100)
10,"CCCCC(NC(=O)c1cccnc1-n1ccc(-c2ccc(CN(CC)CC)cc2)n1)C(=O)C(N)=O (stereo not shown) [Example 44, N-{1-[Amino(oxo)acetyl]pentyl}-2-(3-{4-[(diethylamino)methyl]phenyl}-1H-pyrazol-1-yl)nicotinamide]",+ (+ means 50≦Ki(cathepsin S)/Ki(calpain)<100)
11,"CCN(CC)Cc1ccc(-c2ccn(-c3ncccc3C(=O)NC(Cc3ccccc3)C(=O)C(N)=O)n2)cc1.Cl (stereo not shown) [Example 43, N-(3-Amino-1-benzyl-2,3-dioxopropyl)-2-(3-{4-[(diethylamino)methyl]phenyl}-1H-pyrazol-1-yl)nicotinamide hydrochloride]",++ (++ means a Ki(cathepsin S)/Ki(calpain) ratio of ≧100)
12,"Cl.NC(=O)C(=O)C(Cc1ccccc1)NC(=O)c1cccnc1-n1ccc(-c2cccc(CN3CCOCC3)c2)n1 (stereo not shown) [Example 52, N-(3-Amino-1-benzyl-2,3-dioxopropyl)-2-{3-[3-(morpholin-4-ylmethyl)phenyl]-1H-pyrazol-1-yl}nicotinamide hydrochloride]",++ (++ means a Ki(cathepsin S)/Ki(calpain) ratio of ≧100)
13,"NC(=O)C(=O)C(Cc1ccccc1)NC(=O)c1cccnc1-n1ccc(-c2ccc(CN3CCOCC3)cc2)n1 (stereo not shown) [Example 46, N-(3-Amino-1-benzyl-2,3-dioxopropyl)-2-{3-[4-(morpholin-4-ylmethyl)phenyl]-1H-pyrazol-1-yl}nicotinamide]",++ (++ means a Ki(cathepsin S)/Ki(calpain) ratio of ≧100)
14,"NC(=O)C(=O)C(Cc1ccccc1)NC(=O)c1cccnc1-n1cc(-c2ccccc2F)cn1 (stereo not shown) [Example 104, N-[3-Amino-2,3-dioxo-1-(phenylmethyl)propyl]-2-[4-(2-fluorophenyl)-1H-pyrazol-1-yl]pyridine-3-carboxamide]",+ (+ means 50≦Ki(cathepsin S)/Ki(calpain)<100)
15,"CCN(CC)c1ccc(-c2ccn(-c3ncccc3C(=O)NC(Cc3ccccc3)C(=O)C(N)=O)n2)cc1 (stereo not shown) [Example 42, N-(3-Amino-1-benzyl-2,3-dioxopropyl)-2-{3-[4-(diethylamino)phenyl]-1H-pyrazol-1-yl}nicotinamide]",++ (++ means a Ki(cathepsin S)/Ki(calpain) ratio of ≧100)
16,"NC(=O)C(=O)C(Cc1ccccc1)NC(=O)c1cccnc1-n1cc(CCN2CCOCC2)c(-c2ccc(F)cc2)n1 (stereo not shown) [Example 165, N-[3-Amino-2,3-dioxo-1-(phenylmethyl)propyl]-2-[3-(4-fluorophenyl)-4-(2-morpholin-4-ylethyl)-1H-pyrazol-1-yl]pyridine-3-carboxamide]",++ (++ means a Ki(cathepsin S)/Ki(calpain) ratio of ≧100)

# Target: T2, cathepsin L (Homo sapiens, UniProt P07711)
# T2 construct: cathepsin L—isolated from human liver (Calbiochem #219402); purchased Calbiochem 219402; host or cells: human liver (tissue-derived)
# Assay: Cathepsin L enzyme inhibition in vitro (kinetic fluorescence assay)
# Type: biochemical
# Conditions: cathepsin L isolated from human liver vs calpain I
# Protocol: as §1, §2
# T2 sequence (P07711 114-333): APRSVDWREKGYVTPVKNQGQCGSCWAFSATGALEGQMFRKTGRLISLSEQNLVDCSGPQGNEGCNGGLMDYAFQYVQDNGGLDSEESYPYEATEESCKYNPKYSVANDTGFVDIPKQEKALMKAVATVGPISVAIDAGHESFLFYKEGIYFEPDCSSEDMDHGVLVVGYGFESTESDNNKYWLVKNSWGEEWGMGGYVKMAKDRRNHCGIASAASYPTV
row,Compound,Sel cat. L: Ki(cathepsin L)/Ki(calpain) ratio
1,"CCCCC(NC(=O)c1cc(Cl)cnc1-n1cnc(-c2ccccc2)c1)C(=O)C(N)=O.Cl (stereo not shown) [Example 24, N-{1-[Amino(oxo)acetyl]pentyl}-5-chloro-2-(4-phenyl-1H-imidazol-1-yl)nicotinamide hydrochloride]",+ (+ means 30≦Ki(cathepsin L)/Ki(calpain)<50)
2,"CCCCC(NC(=O)c1cccnc1-n1cnc(-c2ccccc2)c1)C(=O)C(N)=O (stereo not shown) [Example 2, N-{1-[Amino(oxo)acetyl]pentyl}-2-(4-phenyl-1H-imidazol-1-yl)nicotinamide]",++ (++ means a Ki(cathepsin L)/Ki(calpain) ratio of ≧50)
3,"COCc1cn(-c2ncccc2C(=O)NC(Cc2ccccc2)C(=O)C(N)=O)nc1-c1ccc(F)cc1 (stereo not shown) [Example 170, N-[3-Amino-2,3-dioxo-1-(phenylmethyl)propyl]-2-{3-(4-fluorophenyl)-4-[(methyloxy)methyl]-1H-pyrazol-1-yl}pyridine-3-carboxamide]",+ (+ means 30≦Ki(cathepsin L)/Ki(calpain)<50)
